Source: the NIST ThermoML archive (doi:10.1021/je200811n)
± gives the expanded uncertainty stated by the source.

Conditions: Hot wire method

C=C(F)C(F)(F)F [2,3,3,3-tetrafluoro-1-propene]
thermal conductivity (322.22 K, 6361 kPa, Liquid): 0.06113 ± 0.00069 W/m/K | thermal conductivity (322.24 K, 721 kPa, Gas): 0.01595 ± 0.00054 W/m/K | thermal conductivity (322.25 K, 302 kPa, Gas): 0.01579 ± 0.00053 W/m/K | thermal conductivity (322.25 K, 21278 kPa, Liquid): 0.07192 ± 0.00083 W/m/K | thermal conductivity (322.26 K, 11135 kPa, Liquid): 0.06468 ± 0.00073 W/m/K | thermal conductivity (322.26 K, 16399 kPa, Liquid): 0.06856 ± 0.0008 W/m/K | thermal conductivity (322.28 K, 617 kPa, Gas): 0.01584 ± 0.00053 W/m/K | thermal conductivity (322.29 K, 200 kPa, Gas): 0.01556 ± 0.00052 W/m/K | thermal conductivity (322.33 K, 103 kPa, Gas): 0.01529 ± 0.00051 W/m/K | thermal conductivity (322.35 K, 1115 kPa, Gas): 0.01644 ± 0.0003 W/m/K | thermal conductivity (322.36 K, 21276 kPa, Liquid): 0.07119 ± 0.00082 W/m/K | thermal conductivity (322.37 K, 1451 kPa, Liquid): 0.05654 ± 0.00064 W/m/K | thermal conductivity (322.37 K, 6358 kPa, Liquid): 0.06119 ± 0.00069 W/m/K | thermal conductivity (322.38 K, 454 kPa, Gas): 0.01579 ± 0.00053 W/m/K | thermal conductivity (322.39 K, 1199 kPa, Gas): 0.01671 ± 0.0003 W/m/K | thermal conductivity (322.39 K, 11134 kPa, Liquid): 0.06479 ± 0.00073 W/m/K | thermal conductivity (322.45 K, 958 kPa, Gas): 0.01621 ± 0.00054 W/m/K | thermal conductivity (322.5 K, 861 kPa, Gas): 0.01614 ± 0.00054 W/m/K | thermal conductivity (322.51 K, 302 kPa, Gas): 0.01582 ± 0.00053 W/m/K | thermal conductivity (322.56 K, 720 kPa, Gas): 0.01597 ± 0.00054 W/m/K | thermal conductivity (322.6 K, 16396 kPa, Liquid): 0.06784 ± 0.00076 W/m/K | thermal conductivity (322.62 K, 617 kPa, Gas): 0.01591 ± 0.00053 W/m/K | thermal conductivity (322.63 K, 6353 kPa, Liquid): 0.06144 ± 0.00069 W/m/K | thermal conductivity (322.64 K, 201 kPa, Gas): 0.01586 ± 0.00053 W/m/K | thermal conductivity (322.65 K, 1450 kPa, Liquid): 0.05654 ± 0.00064 W/m/K | thermal conductivity (322.66 K, 11130 kPa, Liquid): 0.06486 ± 0.00073 W/m/K | thermal conductivity (322.67 K, 1114 kPa, Gas): 0.01646 ± 0.0003 W/m/K | thermal conductivity (322.69 K, 1199 kPa, Gas): 0.01673 ± 0.0003 W/m/K | thermal conductivity (322.71 K, 21274 kPa, Liquid): 0.0708 ± 0.00079 W/m/K | thermal conductivity (322.73 K, 453 kPa, Gas): 0.01585 ± 0.00053 W/m/K | thermal conductivity (322.76 K, 958 kPa, Gas): 0.01622 ± 0.00054 W/m/K | thermal conductivity (322.76 K, 16394 kPa, Liquid): 0.06823 ± 0.00076 W/m/K | thermal conductivity (322.8 K, 6353 kPa, Liquid): 0.06127 ± 0.00069 W/m/K | thermal conductivity (322.81 K, 103 kPa, Gas): 0.01605 ± 0.00054 W/m/K | thermal conductivity (322.81 K, 11128 kPa, Liquid): 0.06487 ± 0.00073 W/m/K | thermal conductivity (322.82 K, 860 kPa, Gas): 0.01612 ± 0.00054 W/m/K | thermal conductivity (322.84 K, 1450 kPa, Liquid): 0.05629 ± 0.00064 W/m/K | thermal conductivity (322.84 K, 21270 kPa, Liquid): 0.07095 ± 0.00079 W/m/K | thermal conductivity (322.88 K, 302 kPa, Gas): 0.01585 ± 0.00053 W/m/K | thermal conductivity (322.91 K, 720 kPa, Gas): 0.01599 ± 0.00054 W/m/K | thermal conductivity (322.98 K, 616 kPa, Gas): 0.01592 ± 0.00053 W/m/K | thermal conductivity (323 K, 200 kPa, Gas): 0.01592 ± 0.00053 W/m/K | thermal conductivity (323 K, 1199 kPa, Gas): 0.01678 ± 0.0003 W/m/K | thermal conductivity (323.01 K, 1114 kPa, Gas): 0.01647 ± 0.0003 W/m/K | thermal conductivity (323.08 K, 11126 kPa, Liquid): 0.06485 ± 0.00073 W/m/K | thermal conductivity (323.09 K, 6351 kPa, Liquid): 0.06135 ± 0.00069 W/m/K | thermal conductivity (323.1 K, 453 kPa, Gas): 0.0159 ± 0.00053 W/m/K | thermal conductivity (323.11 K, 957 kPa, Gas): 0.01622 ± 0.00054 W/m/K | thermal conductivity (323.13 K, 1448 kPa, Liquid): 0.05646 ± 0.00064 W/m/K | thermal conductivity (323.15 K, 16396 kPa, Liquid): 0.06821 ± 0.00076 W/m/K | thermal conductivity (323.15 K, Liquid): 0.05606 ± 0.00042 W/m/K | thermal conductivity (323.18 K, 859 kPa, Gas): 0.01617 ± 0.00054 W/m/K | thermal conductivity (323.22 K, 103 kPa, Gas): 0.01607 ± 0.00054 W/m/K | thermal conductivity (323.23 K, 21266 kPa, Liquid): 0.07101 ± 0.00079 W/m/K | thermal conductivity (323.26 K, 11126 kPa, Liquid): 0.06472 ± 0.00073 W/m/K | thermal conductivity (323.27 K, 719 kPa, Gas): 0.016 ± 0.00054 W/m/K | thermal conductivity (323.28 K, 302 kPa, Gas): 0.0159 ± 0.00053 W/m/K | thermal conductivity (323.28 K, 6351 kPa, Liquid): 0.06102 ± 0.00069 W/m/K | thermal conductivity (323.33 K, 1199 kPa, Gas): 0.01671 ± 0.0003 W/m/K | thermal conductivity (323.34 K, 614 kPa, Gas): 0.01597 ± 0.00054 W/m/K | thermal conductivity (323.34 K, 1447 kPa, Liquid): 0.05607 ± 0.00066 W/m/K | thermal conductivity (323.34 K, 16393 kPa, Liquid): 0.06817 ± 0.00076 W/m/K | thermal conductivity (323.4 K, 200 kPa, Gas): 0.01592 ± 0.00053 W/m/K | thermal conductivity (323.4 K, 21264 kPa, Liquid): 0.07095 ± 0.00079 W/m/K | thermal conductivity (323.46 K, 956 kPa, Gas): 0.01625 ± 0.00055 W/m/K | thermal conductivity (323.49 K, 453 kPa, Gas): 0.01593 ± 0.00053 W/m/K | thermal conductivity (323.55 K, 858 kPa, Gas): 0.01618 ± 0.00054 W/m/K | thermal conductivity (323.65 K, 103 kPa, Gas): 0.01611 ± 0.00054 W/m/K | thermal conductivity (323.66 K, 718 kPa, Gas): 0.01605 ± 0.00054 W/m/K | thermal conductivity (323.69 K, 302 kPa, Gas): 0.01592 ± 0.00053 W/m/K | thermal conductivity (323.73 K, 612 kPa, Gas): 0.01601 ± 0.00054 W/m/K | thermal conductivity (323.75 K, 16392 kPa, Liquid): 0.06817 ± 0.00076 W/m/K | thermal conductivity (323.8 K, 21262 kPa, Liquid): 0.07093 ± 0.00079 W/m/K | thermal conductivity (323.83 K, 200 kPa, Gas): 0.01593 ± 0.00053 W/m/K | thermal conductivity (323.91 K, 453 kPa, Gas): 0.01589 ± 0.00053 W/m/K | thermal conductivity (323.97 K, 16390 kPa, Liquid): 0.068 ± 0.00076 W/m/K | thermal conductivity (324 K, 21259 kPa, Liquid): 0.07084 ± 0.00079 W/m/K | thermal conductivity (324.11 K, 302 kPa, Gas): 0.01598 ± 0.00054 W/m/K | thermal conductivity (324.12 K, 103 kPa, Gas): 0.01612 ± 0.00054 W/m/K | thermal conductivity (324.29 K, 200 kPa, Gas): 0.01599 ± 0.00054 W/m/K | thermal conductivity (324.62 K, 103 kPa, Gas): 0.01618 ± 0.00054 W/m/K | thermal conductivity (331.07 K, 101 kPa, Gas): 0.01664 ± 0.00056 W/m/K | thermal conductivity (331.09 K, 202 kPa, Gas): 0.01678 ± 0.00056 W/m/K | thermal conductivity (331.12 K, 299 kPa, Gas): 0.01699 ± 0.00057 W/m/K | thermal conductivity (331.29 K, 101 kPa, Gas): 0.0165 ± 0.00055 W/m/K | thermal conductivity (331.3 K, 202 kPa, Gas): 0.0167 ± 0.00056 W/m/K | thermal conductivity (331.34 K, 299 kPa, Gas): 0.01685 ± 0.00056 W/m/K | thermal conductivity (331.53 K, 101 kPa, Gas): 0.01639 ± 0.00055 W/m/K | thermal conductivity (331.54 K, 202 kPa, Gas): 0.01658 ± 0.00056 W/m/K | thermal conductivity (331.56 K, 300 kPa, Gas): 0.01677 ± 0.00056 W/m/K | thermal conductivity (331.78 K, 102 kPa, Gas): 0.01632 ± 0.00055 W/m/K | thermal conductivity (331.78 K, 202 kPa, Gas): 0.0165 ± 0.00055 W/m/K | thermal conductivity (331.8 K, 300 kPa, Gas): 0.0167 ± 0.00056 W/m/K | thermal conductivity (331.8 K, 1511 kPa, Gas): 0.01797 ± 0.00032 W/m/K | thermal conductivity (331.86 K, 1389 kPa, Gas): 0.0177 ± 0.00031 W/m/K | thermal conductivity (331.9 K, 1236 kPa, Gas): 0.01732 ± 0.00031 W/m/K | thermal conductivity (331.98 K, 1075 kPa, Gas): 0.01717 ± 0.00031 W/m/K | thermal conductivity (332 K, 975 kPa, Gas): 0.01697 ± 0.00057 W/m/K | thermal conductivity (332.04 K, 102 kPa, Gas): 0.01627 ± 0.00055 W/m/K | thermal conductivity (332.04 K, 202 kPa, Gas): 0.01642 ± 0.00055 W/m/K
